Measurements published in patent US11820833B2, “Peptides that inhibit binding of EPCR to its ligand to treat inflammation” (Tel HaShomer Medical Research Infrastructure and Services …, priority 2016, dated 2023).
Entries after “also recorded” stand apart in the source; their conditions may differ. Non-standard residues stand in square brackets, D forms with d. Residues, ends and D or L forms follow the SMILES beside them. *: point of attachment. Gla = N[C@@H](CC(C(=O)O)C(=O)O)C(=O)O; Tos = Cc1ccc(S(=O)(=O)*)cc1

Legend:
[1] = test system: Long Term Potentiation (LTP), hippocampal slices; assay: In vitro electrophysiology, Long Term Potentiation in hippocampal slices; parameters: species or system mice; conditions: peptides at 10 μM, HFS 100 Hz 1 second
Protocol: The efficacy of the peptides was tested using in vitro electrophysiology. Here the present inventors tested whether these peptides have similar effects as aPC in enhancing Long Term Potentiation. Briefly, mice (10-12 weeks of age) were rapidly decapitated, the hippocampus was removed, and 400 μm slices were prepared using a vibroslicer. Slices were incubated for 1.5 hours in a humidified, carbogenated (5% CO2 and 95% O2) gas atmosphere at 33±1° C. and were perfused with ACSF [containing (in mm) 124 NaCl, 2 KCl, 26 NaHCO3, 1.24 KH2PO4, 2.5 CaCl2, 2 MgSO4, and 10 glucose, pH 7.4] in a standard interface chamber. Recordings were made with a glass pipette containing 0.75 m NaCl (4 MΩ) placed in the stratum radiatum CA1.
Stimulation was evoked using a Master 8 pulse stimulator (A.M.P.I., Jerusalem, Israel) and was delivered through a bipolar nichrome electrode placed at a side of the recording electrode. LTP was induced by high-frequency stimulation (HFS) consisting of 100 pulses at twice the test intensity, delivered at a frequency of 100 Hz (100 Hz, 1 second). Before applying the tetanic stimulation, baseline values were recorded at a frequency of 0.033 Hz. Responses were digitized at 5 kHz and stored on a computer. Off-line analysis and data acquisition were performed using the LTP Program (Anderson and Collingridge, 2001). Peptides were tested at a concentration of 10 μM.

[2] = test system: commercial human pool plasma; assay: Coagulation tests (PT, APTT, TT, anti Xa, aPC-resistance) in human pool plasma
Protocol: All coagulation tests as PT (Prothrombin Time), APTT (activated partial thromboplastin time), TT (Thrombin Time), anti Xa, aPC-resistance were carried out in collaboration with the routine coagulation lab in Sheba Medical Center and conducted on a commercial human pool plasma samples.
Coagulation tests were conducted at the Sheba Medical Center (as described in details in the ‘general materials and experimental procedures’ section above) and a commercial pool human plasma was used. PEP6 was applied in various concentrations for injection in vivo and for evaluating the safety and the width of the therapeutic window for treatment.

| Molecule | Effect on Long Term Potentiation (LTP) [1] | Effect in APTT (activated partial thromboplastin time) test [2] | Effect in PT (Prothrombin Time) test [2] | Effect on coagulation tests (all conducted tests) ([2]; any concentration tested) |
| --- | --- | --- | --- | --- |
| Tos-{Gla}-EAK-NH2 (Tos-[Gla]EAK-NH2; SMILES Cc1ccc(S(=O)(=O)N[C@@H](CC(C(=O)O)C(=O)O)C(=O)N[C@@H](CCC(=O)O)C(=O)N[C@@H](C)C(=O)N[C@@H](CCCCN)C(N)=O)cc1) [Pep5, N-terminal Tosyl, C-terminal amide, γ-carboxylated Glu] | enhanced | – | – | – |
| Tos-{Gla}-EAK-{Gla}-IF-NH2 (Tos-[Gla]EAK[Gla]IF-NH2; SMILES CC[C@H](C)[C@H](NC(=O)[C@H](CC(C(=O)O)C(=O)O)NC(=O)[C@H](CCCCN)NC(=O)[C@H](C)NC(=O)[C@H](CCC(=O)O)NC(=O)[C@H](CC(C(=O)O)C(=O)O)NS(=O)(=O)c1ccc(C)cc1)C(=O)N[C@@H](Cc1ccccc1)C(N)=O) [Pep7, N-terminal Tosyl, C-terminal amide, γ-carboxylated Glu] | enhanced | – | – | – |
| Tos-{Gla}-EAR-{Gla}-IF-NH2 (Tos-[Gla]EAR[Gla]IF-NH2; SMILES CC[C@H](C)[C@H](NC(=O)[C@H](CC(C(=O)O)C(=O)O)NC(=O)[C@H](CCCNC(=N)N)NC(=O)[C@H](C)NC(=O)[C@H](CCC(=O)O)NC(=O)[C@H](CC(C(=O)O)C(=O)O)NS(=O)(=O)c1ccc(C)cc1)C(=O)N[C@@H](Cc1ccccc1)C(N)=O) [Pep8, N-terminal Tosyl, C-terminal amide, γ-carboxylated Glu] | enhanced | – | – | – |
| Cc1ccc(S(=O)(=O)N[C@@H](CC(C(=O)O)C(=O)O)C(=O)N[C@@H](CCC(=O)O)C(=O)N[C@@H](C)C(=O)N[C@@H](CCCNC(=N)N)C(N)=O)cc1 [Pep6, Tos-{Gla}-EAR-NH2] (Tos-[Gla]EAR-NH2) | – | small but statistically significant effect | small but statistically significant effect | either no effect or clinical-irrelevant effect; also recorded: did not affect |
